This note sets out measurements from patent US10961200B2, “Small molecule inhibitors of lactate dehydrogenase and methods of use thereof” (THE UNITED STATES OF AMERICA, AS REPRESENTED BY THE …, priority 2014, dated 2021).

For one experiment, the target named is Human LDHA (Homo sapiens (Human), UniProt P00338). Briefly: human LDHA primary biochemical assay (resazurin/diaphorase coupled, fluorescence). Particulars: LDHA inhibitory activity, activity level based on IC50 (Table 7). From the text:
Test compounds were placed in a Greiner Bio-One (Monroe, N.C.) 1536-well black solid bottom assay plate. 200 millimolar (mM) Tris HCl, pH 7.4, 100 micromolar […] EDTA and 0.01% TWEEN-20™, final concentration, was used as the assay buffer. The LDHA reagent was 2 nanomolar (nM) Human LDHA (Meridian Life Science, Inc., Memphis, Tenn.), final concentration, in assay buffer.
Background: Alamar Blue is a resazurin reagent that responds to reducing activity.
For orientation: IC50 means the point on the concentration scale where inhibition reaches its midpoint. As for `Cc1ccc(-c2cccc(-c3c(Cc4ccc([S+](N)(=O)[O-])c(F)c4)c(C4CC4)nn3-c3nc(C(=O)O)cs3)c2)cc1` [Compound 346], the IC50 was 1000 to 57000 nM.

In the case of `O=C(O)c1csc(-n2nc(-c3ccc(Cl)cc3)cc2C(F)(F)F)n1` [Compound 427], the half-maximal inhibitory concentration (IC50) was 1000 to 57000 nM.

`Cc1oc(=O)oc1COC(=O)c1csc(-n2nc(-c3ccc(F)c(C#CC4CCCC4)c3)c(Cc3ccc(S(N)(=O)=O)c(F)c3)c2CC2CC2)n1` [Compound 441] displayed a concentration for half-maximal inhibition (IC50) of more than 57000 nM.

In turn, `C/C=C(\C)c1cc(-c2nn(-c3nc(C(=O)O)cs3)c(CC3CC3)c2Cc2ccc(S(N)(=O)=O)c(F)c2)ccc1F` [Compound 450] returned an IC50 of less than 100 nM.

With `Cc1ccc(-c2nn(-c3nc(C(=O)O)cs3)c(C3CC3)c2Cc2ccc(S(N)(=O)=O)cc2)cc1-c1cccnc1` [Compound 499, 2-(5-cyclopropyl-3-(4-methyl-3-(pyridin-3-yl)phenyl)-4-(4-sulfamoylbenzyl)-1H-pyrazol-1-yl)thiazole-4-carboxylic acid], the IC50 is less than 100 nM.

For the compound `NS(=O)(=O)c1ccc(Cc2c(-c3cccc(-c4cccc(F)c4)c3)nn(-c3nc(C(=O)O)cs3)c2C2CC2)c(F)c1` [Compound 359], the IC50 was less than 100 nM.

`NS(=O)(=O)c1ccc(Cc2c(-c3ccc(F)c(/C=C/C4CCCC4)c3)nn(-c3nc(C(=O)O)cs3)c2CC2CC2)cc1F` [Compound 535, (E)-2-(3-(3-(2-cyclopentylvinyl)-4-fluorophenyl)-5-(cyclopropylmethyl)-4-(3-fluoro-4-sulfamoylbenzyl)-1H-pyrazol-1-yl)thiazole-4-carboxylic acid] returned an IC50 of less than 100 nM.

On to `NS(=O)(=O)c1ccc(Cc2c(-c3cccc(-c4cccc(F)c4)c3)nn(-c3nc(C(=O)O)cs3)c2C2CC2)cc1F` [Compound 351], for which the IC50 is less than 100 nM.

Take `NS(=O)(=O)c1ccc(Cc2c(-c3cccc(-c4ccc(F)cc4)c3)nn(-c3nc(C(=O)O)cs3)c2C2CC2)cc1F` [Compound 349]: the IC50 was less than 100 nM.

In turn, `N[S+](=O)([O-])c1ccc(Cc2c(-c3ccc(F)c(-c4ccc(F)cc4)c3)nn(-c3nc(C(=O)O)cs3)c2CC2CC2)c(F)c1` [Compound 364] returned an IC50 of less than 100 nM.

For `Cc1ccc(-c2nn(-c3nc(C(=O)O)cs3)cc2Cc2ccc(S(N)(=O)=O)cc2)cc1-c1ccncc1` [Compound 490, 2-(3-(4-methyl-3-(pyridin-4-yl)phenyl)-4-(4-sulfamoylbenzyl)-1H-pyrazol-1-yl)thiazole-4-carboxylic acid], the IC50 is 100 to 1000 nM.

The experiment is the same for the next values; noted with them: LDHA inhibitory activity, assay of Example 1; activity level classes.
`CCOC(=O)OC(C)OC(=O)c1csc(-n2nc(-c3ccc(F)c(F)c3)cc2O)n1` (centres unmarked) [Compound 105, 1-((ethoxycarbonyl)oxy)ethyl 2-(3-(3,4-difluorophenyl)-5-hydroxy-1H-pyrazol-1-yl)thiazole-4-carboxylate]: the IC50 is more than 57000 nM.

With `O=C(O)c1csc(-n2nc(-c3ccc(F)c(S(=O)(=O)NCc4ccccc4)c3)cc2O)n1` [Compound 110, 2-(3-(3-(N-benzylsulfamoyl)-4-fluorophenyl)-5-hydroxy-1H-pyrazol-1-yl)thiazole-4-carboxylic acid], the IC50 was more than 57000 nM.

Take `NS(=O)(=O)c1ccc(Cc2c(-c3cccc4ccccc34)nn(-c3nc(C(=O)O)cs3)c2O)cc1` [Compound 81, 2-(5-hydroxy-3-(naphthalen-1-yl)-4-(4-sulfamoylbenzyl)-1H-pyrazol-1-yl)thiazole-4-carboxylic acid]: the IC50 fell in the range of 1000 to 57000 nM.

`Nc1c(Cc2ccc(S(N)(=O)=O)cc2)c(-c2ccccc2)nn1-c1cc(C(=O)O)ccn1` [Compound 145, 2-(5-amino-3-phenyl-4-(4-sulfamoylbenzyl)-1H-pyrazol-1-yl)isonicotinic acid] registered a half-maximal inhibitory concentration (IC50) of more than 57000 nM.

The compound `O=C(O)c1csc(-n2nc(-c3ccc(CCNS(=O)(=O)C4CC4)c(F)c3)cc2O)n1` [Compound 112, 2-(3-(4-(2-(cyclopropanesulfonamido)ethyl)-3-fluorophenyl)-5-hydroxy-1H-pyrazol-1-yl)thiazole-4-carboxylic acid] registered an IC50 of more than 57000 nM.

`COc1cccc(-c2cc(-c3c(Cc4ccc([S+](N)(=O)[O-])cc4)c(CC4CC4)nn3-c3nc(C(=O)O)cs3)ccc2F)c1` [Compound 236] had an IC50 of more than 57000 nM.

Take `COc1c(Cc2ccc(S(N)(=O)=O)cc2)c(-c2ccc(F)c(F)c2)nn1-c1nc(C(=O)O)cs1` [Compound 60, 2-(3-(3,4-difluorophenyl)-5-methoxy-4-(4-sulfamoylbenzyl)-1H-pyrazol-1-yl)thiazole-4-carboxylic acid]: the IC50 lay within 100 to 1000 nM.

Consider `CCOC(=O)c1csc(-n2nc(-c3ccccc3)c(Cc3ccc(S(N)(=O)=O)cc3)c2C2CC2)n1` [Compound 272], for which the IC50 was more than 57000 nM.

As for `CCOC(=O)c1csc(-n2nc(CC3CC3)c(Cc3ccc(S(N)(=O)=O)c(F)c3)c2-c2ccc(F)c(-c3cccc(F)c3)c2)n1` [Compound 317], the IC50 is more than 57000 nM.

Turning to `Cc1ccc(-c2cc(-c3nn(-c4nc(C(=O)O)cs4)c(C4CC4)c3Cc3ccc(S(N)(=O)=O)c(F)c3)ccc2F)cc1` [Compound 249], the IC50 is less than 100 nM.

On to `C=Cc1c(Cc2ccc(S(N)(=O)=O)cc2)c(-c2ccccc2)nn1-c1nc(C(=O)O)cs1` [Compound 167, 2-(3-phenyl-4-(4-sulfamoylbenzyl)-5-vinyl-1H-pyrazol-1-yl)thiazole-4-carboxylic acid], for which the IC50 was less than 100 nM.

`NC(=O)c1ccc(Cc2c(-c3cccc(-c4ccccc4)c3)nn(-c3nc(C(=O)O)cs3)c2O)cc1` [Compound 67, 2-(3-([1,1′-biphenyl]-3-yl)-4-(4-carbamoylbenzyl)-5-hydroxy-1H-pyrazol-1-yl)thiazole-4-carboxylic acid] gave an IC50 of more than 57000 nM.

Compound `CCOC(=O)c1csc(-n2nc(CC3CC3)c(Cc3ccc(S(N)(=O)=O)cc3F)c2-c2ccc(F)c(-c3cccc(F)c3)c2)n1` [Compound 315] had an IC50 of more than 57000 nM.

Still in this experiment, the particulars now being: read-out: Inhibitory activity IC50.
For `Cc1ccc(-c2cc(-c3c(Cc4ccc(S(N)(=O)=O)cc4F)c(CC4CC4)nn3-c3nc(C(=O)O)cs3)ccc2F)s1` [Compound 226, 2-(3-(cyclopropylmethyl)-5-(4-fluoro-3-(5-methylthiophen-2-yl)phenyl)-4-(2-fluoro-4-sulfamoylbenzyl)-1H-pyrazol-1-yl)thiazole-4-carboxylic acid], the IC50 is more than 57000 nM.

As for `NC(=O)c1csc(-n2nc(-c3ccccc3)c(Cc3ccc(S(N)(=O)=O)cc3)c2I)n1` [Compound 78, 2-(5-iodo-3-phenyl-4-(4-sulfamoylbenzyl)-1H-pyrazol-1-yl)thiazole-4-carboxamide], the IC50 lay within 1000 to 57000 nM.

In the case of `O=C(O)c1csc(-n2cc(Cc3ccc(CO)cc3)c(-c3cccc(-c4ccccc4)c3)n2)n1` [Compound 200, 2-(3-([1,1′-biphenyl]-3-yl)-4-(4-(hydroxymethyl)benzyl)-1H-pyrazol-1-yl)thiazole-4-carboxylic acid], the IC50 is 1000 to 57000 nM.

On to `NS(=O)(=O)c1ccc(Cc2c(C3CC3)nn(-c3nc(C(=O)O)cs3)c2-c2cccc(-c3ccccc3)c2)cc1` [Compound 184, 2-(5-([1,1′-biphenyl]-3-yl)-3-cyclopropyl-4-(4-sulfamoylbenzyl)-1H-pyrazol-1-yl)thiazole-4-carboxylic acid], for which the IC50 was 1000 to 57000 nM.

For the compound `NS(=O)(=O)c1ccc(Cc2c(-c3ccccc3)nn(-c3nc(C(=O)O)cs3)c2-c2ccncc2)cc1` [Compound 156, 2-(3-phenyl-5-(pyridin-4-yl)-4-(4-sulfamoylbenzyl)-1H-pyrazol-1-yl)thiazole-4-carboxylic acid], the IC50 was in the range of 1000 to 57000 nM.

Consider `NS(=O)(=O)c1ccc(Cc2cn(-c3nc(C(=O)O)cs3)c3cc(CN4CCOCC4)ccc23)cc1` [Compound 192, 2-(6-(morpholinomethyl)-3-(4-sulfamoylbenzyl)-1H-indol-1-yl)thiazole-4-carboxylic acid], for which the IC50 fell in the range of 100 to 1000 nM.

Consider `N[S+](=O)([O-])c1ccc(Cc2c(CC3CC3)nn(-c3nc(C(=O)O)cs3)c2-c2ccc(F)c(-c3ccc(F)cc3)c2)cc1` [Compound 292], for which the IC50 fell in the range of 1000 to 57000 nM.

Consider `N#CCc1c(Cc2ccc(S(N)(=O)=O)cc2)c(-c2ccccc2)nn1-c1nc(C(=O)O)cs1` [Compound 59, 2-(5-(cyanomethyl)-3-phenyl-4-(4-sulfamoylbenzyl)-1H-pyrazol-1-yl)thiazole-4-carboxylic acid], for which the IC50 fell in the range of 100 to 1000 nM.

For `NS(=O)(=O)c1ccc(Cc2c(CC3CC3)nn(-c3nc(C(=O)O)cs3)c2-c2ccccc2)cc1` [Compound 188, 2-(3-(cyclopropylmethyl)-5-phenyl-4-(4-sulfamoylbenzyl)-1H-pyrazol-1-yl)thiazole-4-carboxylic acid], the IC50 lay in the range of 100 to 1000 nM.

Regarding `NS(=O)(=O)c1ccc(Cc2c(-c3ccccc3)nn(-c3nc(C(=O)O)cs3)c2Cc2nnn[nH]2)cc1` [Compound 87, 2-(5-((1H-tetrazol-5-yl)methyl)-3-phenyl-4-(4-sulfamoylbenzyl)-1H-pyrazol-1-yl)thiazole-4-carboxylic acid], the IC50 was 1000 to 57000 nM.

For the compound `NC(=O)c1csc(-n2cc(Cc3ccc(S(N)(=O)=O)cc3)c(-c3ccccc3)n2)n1` [Compound 79, 2-(3-phenyl-4-(4-sulfamoylbenzyl)-1H-pyrazol-1-yl)thiazole-4-carboxamide], the IC50 was in the range of 1000 to 57000 nM.

For `CCOC(=O)c1csc(-n2nc(-c3ccccc3)c(Cc3ccc(S(N)(=O)=O)cc3)c2N)n1` [Compound 58, ethyl 2-(5-amino-3-phenyl-4-(4-sulfamoylbenzyl)-1H-pyrazol-1-yl)thiazole-4-carboxylate], the IC50 was 1000 to 57000 nM.

As to `Nc1c(Cc2ccc(S(N)(=O)=O)cc2)c(-c2ccccc2)nn1-c1ccc(Cl)nn1` [Compound 83, 4-((5-amino-1-(6-chloropyridazin-3-yl)-3-phenyl-1H-pyrazol-4-yl)methyl)benzenesulfonamide], the concentration for half-maximal inhibition (IC50) is 1000 to 57000 nM.

On to `O=C(O)c1csc(-n2ccc(-c3cccc(-c4ccccc4)c3)n2)n1` [Compound 22, 2-(3-([1,1′-biphenyl]-3-yl)-1H-pyrazol-1-yl)thiazole-4-carboxylic acid], for which the IC50 was 1000 to 57000 nM.
